Assay [1] concerns area of infarction following coronary occlusion. Particulars: dogs; cited from earlier work.
In assay [2] the test system is Arachidonic acid-induced ear swelling. The experiment in a line: Arachidonic acid-induced mouse ear inflammation (ear swelling). The format is in vivo, male Balb/c mice. The note with it: for antiinflammatory activity (mouse ear edema): p.o. On the procedure:
In the following Examples male Balb/c mice (20-28 g) were used. All mice were obtained from Charles River Breeding Laboratories, Kingston, N.Y. Within a single experiment, mice were sex and age matched.
The compounds of Formula (I), indomethacin, naproxen, and ibuprofen were each used as the free base. The compounds were homogenized in 0.5% tagacanth. Compounds were administered by gavage at the indicated dose in a final volume of 10 ml/kg. The compounds of Formula (I) were solubilized in dimethylacetamide and diluted with olive oil for subcantaneous administration.
Arachidonic acid in acetone (2 mg/20 μl) was applied to the inner surface of the left ear. The thickness of both ears was then measured with a dial micrometer one hour after treatment, and the […] were expressed as the change in thickness (10^-3 cm) between treated and untreated ears.
Test compounds were given orally in 0.5% tragacanth at the times indicated in the text prior to the topical application of arachidonic acid.
Parenteral administration of compound was accomplished by subcutaneous injection of solution as indicated.

For assay [3], the target named is T1, 5-lipoxygenase (Rattus norvegicus, UniProt P12527).
T1 construct: The activities of these enzymes in extracts of RBL-1 cells were assayed; host or cells: RBL-1 cells, supernatant of broken cell extract
T1 sequence (P12527 1-673): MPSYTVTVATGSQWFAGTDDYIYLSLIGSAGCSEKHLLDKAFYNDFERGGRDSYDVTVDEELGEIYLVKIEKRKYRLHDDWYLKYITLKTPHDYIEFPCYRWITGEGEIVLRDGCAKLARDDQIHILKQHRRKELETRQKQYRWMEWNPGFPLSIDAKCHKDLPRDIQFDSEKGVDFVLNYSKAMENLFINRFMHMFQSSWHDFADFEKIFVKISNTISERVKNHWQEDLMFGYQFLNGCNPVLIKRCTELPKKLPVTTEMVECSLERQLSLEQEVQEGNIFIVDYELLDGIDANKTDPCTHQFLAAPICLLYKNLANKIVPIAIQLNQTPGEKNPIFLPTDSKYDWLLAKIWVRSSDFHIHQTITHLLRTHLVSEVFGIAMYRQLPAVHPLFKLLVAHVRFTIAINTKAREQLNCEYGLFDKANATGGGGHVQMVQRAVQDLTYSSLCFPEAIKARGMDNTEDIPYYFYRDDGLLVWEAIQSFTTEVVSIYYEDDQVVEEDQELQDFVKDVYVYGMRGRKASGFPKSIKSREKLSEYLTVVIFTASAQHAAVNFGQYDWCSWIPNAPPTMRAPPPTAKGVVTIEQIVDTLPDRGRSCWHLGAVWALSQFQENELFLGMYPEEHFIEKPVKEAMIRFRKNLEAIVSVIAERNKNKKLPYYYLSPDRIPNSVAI
The experiment in a line: 5-lipoxygenase activity: LTB4 production by RBL-1 high speed supernatant. The format is biochemical. Particulars: for pIC50: RBL1 high speed supernatant, read-out: 5LO IC50 (LTB4 Production). As for the experimental part: (§1) For in vitro experiments, compounds were dissolved at appropriate concentrations in ethanol (final concentration μ1.0%) and then diluted to final concentrations using the buffers indicated in the text.
(§2) The activities of these enzymes in extracts of RBL-1 cells were assayed using the method of Jakschik and Lee, Nature, 287, 51-52 (1980). RBL-1 cells were obtained from the American Type Culture Collection (#CRL 1378) and were grown at 37° C. (5% CO2 in air) in spinner culture in MEM supplemented with 10% heat inactivated fetal calf serum. Harvested cells were washed with 50 mM sodium phosphate buffer, pH 7.0, containing 1 mM EDTA and 0.1% galatin, resuspended in fresh buffer (5×10^7 cells/ml) and disrupted by nitrogen cavitation using the Parr bomb at 750 psi for 10 min. The broken cell extract was then centrifuged at 10,000×g for 60 minutes (min). Aliquots (0.25 mls) of the supernatant were preincubated with or without drugs for 10 min, after which 10 μl CaCl2 (2 mM) of 2.5 mM arachidonic acid-1-^14 C (final concentration was […]; specific activity 20,000 dpm/nmole). After incubation for 5 min at […], the reaction was terminated by addition of 2 volumes (0.5 ml) ice cold acetone and the sample was allowed to deproteinize on ice for 10 min prior to centrifugation at 1,000×gfor 10 min. The deproteinized supernatant was adjusted to pH 3.5 with 2N formic acid and extracted with 2 volumes of ice cold ethyl acetate. The extracted samples were dried under argon, redissolved in ethyl acetate and applied to Whatman LK5D thin layer chromatography (TLC) plates which were developed using the A-9 solvent system [organic phase of ethyl acetate:2,2,5-trimethylpentane:acetic acid:water (110:50:20:10)] described by Hamberg and Samuelsson, J. Bio. Chem., 241, 257-263 (1966). Arachidonic acid, 5-HETE, LTB4 and PGD2 were quantified with a Berthold LB 2832 autoscanner.
(§3) Drug-induced effects on enzyme activities are described as the concentration of drug causing a 50% inhibition of metabolite synthesis (IC50).

Assay [4] concerns the target T1, 5-lipoxygenase. The assay can be described thus: 5-lipoxygenase activity: 5-HETE production by RBL-1 high speed supernatant. The note with it: RBL1 high speed supernatant; read-out: 5LO IC50 (5-HETE Production). The format is biochemical. On the procedure: as §1, §2, §3
Assay [5] relates to LTC4 production by human monocytes. The assay can be described thus: LTC4 production by human monocytes. The format is cell-based. The note with it: Monocyte, A23187-stimulated, 3 hours, drug added 30 minutes prior. On the procedure: as §1
One of the compounds of Formula (I), i.e., Compound Number 8 from Table 1, was evaluated for its ability to inhibit the production of LTC4 by human monocytes according to the following protocol.
Human monocytes were prepared from whole blood supplied by the American Red Cross. The blood was fractionated by a two-step procedure employing sedimentation on Ficoll followed by sedimentation on Percoll. The mononuclear cell fraction recovered was composed of 80-90% monocytes with the remainder of the cells being predominant lymphocytes. The monocytes were plated at 1×10^6 cells per well in a Costar 24 well tissue culture plat and allowed to adhere for one hour at 37° C. Non-adherent cells were removed by washing. The cells were stimulated with […] of A23187 calcium ionophore for 3 hours at 37° C. to induce LTC-4 produced when drugs were evaluated. They were added to the cells 30 minutes prior to the A23187. Supernatants were collected, clarified by centrifugation and store frozed at -20° C. until assay. The LTC-4 content was determined by using a New England Nuclear Leukotriene C-4 (^3 H) RIA Kit as per instructions.

The next assay concerns psoriasis. The note with it: in vivo; cited from earlier work.
Another assay concerns lipoxygenase. Particulars: in vitro; cited from earlier work.
Assay [6] has as its system Arachidonic acid-induced ear swelling. The experiment in a line: Arachidonic acid-induced mouse ear inflammation (ear swelling). The format is in vivo, male Balb/c mice.
The test system of assay [7] is LTB4 and 5-HETE production. The note with it: in vitro; cited from earlier work.
A further assay relates to rheumatoid arthritis. Particulars: preliminary observation; cited from earlier work.
The mark [8] stands for this setting: 50 mg/kg s.c. or i.p., 2 mg arachidonic acid, 1 hour, * p .05, ** p .01, *** p .001.

Molecules are shown by their SMILES. pIC50: −log10 of the molar value.

For the compound `NC1=NN(c2cccc(C(F)(F)F)c2)CC1` [BW755-C], the “area of infarction following coronary occlusion” value in assay [1] was “reduced”.
With `COc1ccc(-c2nc(SC)n(C)c2-c2ccc(OC)cc2)cc1` [Compound 1], the “% Inhibition of Ear Swelling” value in assay [2] (setting [8]) was 51%. The pIC50 on 5-lipoxygenase [3] and on 5-lipoxygenase [4] was 4.89 each time.
Regarding `O=S(=O)(c1nc(-c2ccc(F)cc2)c(-c2ccc(F)cc2)[nH]1)C(F)(F)C(F)F` [Compound 2], the “% Inhibition of Ear Swelling” value in assay [2] (setting [8]) turned out to be 41%. The pIC50 (as a rule, the negative decadic logarithm of the IC50, by convention in mol/L) was 5.18 at 5-lipoxygenase [3] and 4.80 at 5-lipoxygenase [4].
For `CCSc1nc(-c2ccc(OC)cc2)c(-c2ccc(OC)cc2)n1CC` [Compound 3], the figures for the pIC50 on 5-lipoxygenase [3] and at 5-lipoxygenase [4] were 5.08 and 4.98, respectively.
With `COc1ccc(-c2nc(NC#N)[nH]c2-c2ccc(OC)cc2)cc1` [Compound 4, 4,5-Bis(4-methoxyphenyl)-2-cyanamido-imidazole or 4,5-Bis(4-methoxyphenyl)-2-amino-1-cyano-imidazole], the “% Inhibition of Ear Swelling” value in assay [2] (setting [8]) is reported as 46%. The pIC50 is 5.82 on 5-lipoxygenase [3] and 5.51 at 5-lipoxygenase [4].
The corresponding values for `N#CNc1nc(-c2ccc(F)cc2)c(-c2ccc(F)cc2)[nH]1` [Compound 5, 4,5-Bis(4-fluorophenyl)-2-cyanamido-imidazole or 4,5-Bis(4-fluorophenyl)-2-amino-1-cyano-imidazole] are 59%, 6.00 and 5.10.
Turning to `COc1ccc(-c2nc(C(F)(F)F)[nH]c2-c2ccc(OC)cc2)cc1` [Compound 6], the “% Inhibition of Ear Swelling” value in assay [2] (50 mg/kg, oral dosing (p.o.), ** p .01) came out at 28%. Moreover, the pIC50 is 5.96 at 5-lipoxygenase [3] and 6.15 on 5-lipoxygenase [4].
As for `Fc1ccc(-c2nc(-c3ccc(F)cc3)c(-c3ccc(F)cc3)[nH]2)cc1` [Compound 7], the “% Inhibition of Ear Swelling” value in assay [2] (setting [8]) is 15%. Moreover, the negative-log IC50 (pIC50) on 5-lipoxygenase [3] and on 5-lipoxygenase [4] was 5.00 in each case.
Take `Fc1ccc(-c2[nH]c(S)nc2-c2ccncc2)cc1` [Compound 8]: the pIC50 was 5.82 on 5-lipoxygenase [3], 4.77 at 5-lipoxygenase [4] and 6.10 in assay [5].
Take `Fc1ccc(-c2[nH]c(SC(F)(F)C(F)F)nc2-c2ccncc2)cc1` [Compound 9]: the pIC50 at 5-lipoxygenase [4] is 4.02.
On to `CC(C(=O)O)c1ccc2oc(-c3ccc(Cl)cc3)nc2c1` (centres unmarked) [benoxaprofen], for which the effect on psoriasis entry in the assay on psoriasis is given as “promising effect”. In addition, in the assay with lipoxygenase, the lipoxygenase inhibitory activity entry was “in vitro lipoxygenase inhibitory activity”.
Regarding `CC(C)Cc1ccc(C(C)C(=O)O)cc1` (centres unmarked) [ibuprofen, reference compound], the “antiinflammatory activity (mouse ear edema)” value (“antiinflammatory activity” for short) in [2] (250 mg/kg) was “did not exhibit detectable antiinflammatory activity”.
`COc1ccc2c(c1)c(CC(=O)O)c(C)n2C(=O)c1ccc(Cl)cc1` [indomethacin, reference compound]: the “antiinflammatory activity” value in assay [2] (10 mg/kg) is “did not exhibit detectable antiinflammatory activity”. Also, the “reduction of inflammation (mouse ear model)” value in assay [2] (arachidonic acid-induced) was “did not reduce inflammation or cell infiltration”. In addition, the “inhibition of 5-lipoxygenase products (RBL-1 extract)” value on 5-lipoxygenase [3] (concentrations up to 10^-4 M) is “inactive”. The “reduction of cell infiltration (mouse ear model)” value in [6] is given as “did not reduce inflammation or cell infiltration”.
Consider `COc1ccc2cc([C@H](C)C(=O)O)ccc2c1` [naproxen, reference compound], for which the “antiinflammatory activity” value in assay [2] (100 mg/kg) is “did not exhibit detectable antiinflammatory activity”.
In the case of `O=C(O)c1cc(/N=N/c2ccc(S(=O)(=O)Nc3ccccn3)cc2)ccc1O` [sulfasalazine], the “inhibition of LTB4 and 5-HETE production” value in assay [7] was “inhibit LTB4 and 5-HETE production in vitro”. In the assay with rheumatoid arthritis, the “efficacy in rheumatoid arthritic patients” value is “efficacy, including remission”.

These data come from patent publication US4686231A, “Inhibition of 5-lipoxygenase products” (SmithKline Beckman Corporation, priority 1986, dated 1987).
